From paper PMC9023544, “Ketone-selenoesters as potential anticancer and multidrug resistance modulation agents in 2D and 3D ovarian and breast cancer in vitro models” (Scientific Reports, 2022)

Tests used:
[1] = test system: ABC superfamily genes in HOC/ADR; assay: Expression of genes encoding ABC transporters, qPCR; type: cell-based, human; conditions: IC10 alone, 48 h
Description: Based on the fact that compounds K3, K4, K7 sensitized drug-resistant cell lines (HOC/ADR, MCF-7/PAX) and modulated ATPase activity of one from the ABC proteins (P-gp), we verified the potential of these compounds to affect ABC superfamily gene expression. The ovarian and breast cancer cell lines (parental cells and resistant sub-line) were analysed for the expression profile of genes encoding the ABC proteins in the previous works[18]–[20]. […] After 48 h, the effect of compounds alone or in the combination with cytostatics was observed (Supplementary Tables 1, Table 2).
To determine the impact of selected compounds on the expression of genes encoding ABC transporter, HOC/ADR and MCF-7/PAX cells were seeded for 24 h into 5 cm Petri dishes with DMEM medium at the cell density 1 × 10^5 cells/mL. Afterwards, the cells were washed 1× with PBS and new fresh DMEM supplemented with K3, K4, and K7 (in concentration corresponding to their IC10 value) alone or combined with cytostatics (Adriamycin or paclitaxel in concentration corresponding to their IC25 value) was added. In the experiment, positive and negative control was also included (positive—untreated cells, negative—cells treated only with cytostatics). After 48 h exposure, the cells were washed once with PBS and released from the surface by using the above-mentioned trypsin–EDTA procedure. The enzyme reaction was stopped by medium addition and the cells were centrifuged (3200×g; 10 min, 4 °C). The supernatants were removed and before the next centrifugation, the pellets were resuspended in 1.5 mL of cooled PBS (5400×g; 10 min, 4 °C). After the second washing step, the cells were centrifuged another time (10,000×g; 3 min, 4 °C). Subsequently, 1 mL of Trizol (Invitrogen) was added to the pellets and the compounds were stored − 80 °C.
The RNA concentration of selenoester treated samples was determined using QuantiT RiboGreen RNA Assay Kit and Infinite M200 plate reader (Tecan, Männedor, Switzerland). The cDNA was synthesized from 0.5 µg of total RNA by RevertAid First Strand Synthesis cDNA Kit (MBI Fermentas, Vilnius, Lithuania). To determine the quality of cDNA, the ubiquitin C gene fragment was amplified. The experiment was performed in 384-well block by using ViiA7 Real-Time PCR System (Life Technologies, Camarillo, California, United States). A master mix contained 0.25 µL of 20× TaqMan Gene Expression Assay, 1 µL of 5× HotFIREPol Probe qPCR Mix Plus, 1.75 µL of RNase free water and 2 µL of 8× diluted cDNA. The final reaction volume was 5 µL. The PCR parameters were as follows: initial hold (50 °C for 2 min), denaturation (95 °C for 10 min), followed by 45 cycles (denaturation at 95 °C for 15 s, annealing at 60 °C for 1 min). After each cycle, the fluorescent signal was determined. For each compound, duplicates were analysed and those with a standard deviation higher than 0.5 Ct were re-analysed. A quantitate real-time PCR was followed by MIQE guidelines. To compare the relative transcript levels of genes, the software REST 2009 (Qiagen, Hilden, Germany) was used.
Table 1. Effect of selenoesters on the expression of genes of the ABC superfamily in Adriamycin-resistant ovarian carcinoma cell line (HOC/ADR).
Gene expression of ABC transporters were estimated using comercial predesigned Taqman Gene Expression Assays (Life technologies). TaqMan Gene Expression Assays are based on 5´ nuclease chemistry, and each assay contains the primer and probe set for target of interest. Taqman assays IDs and GenBank Accession numbers of reference sequencies identifying their location and amplicon lengths are included in […]. * Relative transcript levels (P-value ) in treated and non-treated cancer cell lines were compared using REST 2009 software.

MCF-7/PAX spheroids = assay: Sensitization of resistant 3D spheroids to paclitaxel; type: cell-based, human; conditions: paclitaxel IC50 / paclitaxel + selenoester IC50; K3 3 µM, K4 3 µM, K7 5 µM; 72 h
Description: In the previous section, the cytotoxic activity of selenoesters was determined against several 3D models of sensitive and resistant cell lines. Subsequently, the selenoesters were tested for their potential to sensitize the drug-resistant HOC/ADR and MCF-7/PAX spheroids. Mature 72 h old spheroids were incubated with the non-toxic concentration of selenoesters with Adriamycin or paclitaxel (concentration range 0.6–80 µM) for HOC/ADR or MCF-7/PAX, respectively (Table 8). After another 72 h incubation, the sensitization rate (fold change) was evaluated. […] The highest sensitization rate of ovarian spheroids (HOC/ADR) was induced by 5 µM K4, followed by 5 µM K7, and 3 µM K3.
To determine the sensitization potential of compounds, HOC/ADR and MCF-7/PAX were seeded into the ultra-low attachment 96-well plates (Sigma-Aldrich) at a cell density 0.5 × 10^5 cells/mL. After 3 days of spheroid formation, spheroids were carefully washed once with PBS and fresh DMEM medium (99 µL) containing the appropriate concentration of compounds K3, K4, K7 was added. Using a binary serial compound dilution, the concentration range of both cytostatics was prepared in the new 96-well plates (0.06–8 mM). After 1 µL transfer of cytostatics into the corresponding cell line, the final concentration range were 0.6–80 µM. The required volume of DMSO (1% V/V) was added to the positive control. After an incubation of 72 h, 100 µL of CellTiter-Glo 3D Reagent (Promega) was added to each well. Plates with spheroids were incubated for 25 min at room temperature. Afterwards, the luminescent signal was recorded.

SMILES: CC(=O)C[Se]C(=O)c1ccc(Br)cc1 [K3]
- ABCA1 Expression Difference [1]: 0.968
- ABCA2 Expression Difference [1]: 0.997
- ABCA3 Expression Difference [1]: 0.838
- ABCA3 Treated vs. Untr. [1]: DOWN
- ABCA5 Expression Difference [1]: 2.693
- ABCA7 Expression Difference [1]: 0.322
- ABCA7 Treated vs. Untr. [1]: DOWN
- ABCB1 Expression Difference [1]: 3.825
- ABCB2 Expression Difference [1]: 0.315
- ABCB2 Treated vs. Untr. [1]: DOWN
- ABCB3 Expression Difference [1]: 4.904
- ABCB6 Expression Difference [1]: 4.860
- ABCB8 Expression Difference [1]: 2.659
- ABCB9 Expression Difference [1]: 4.156
- ABCB10 Expression Difference [1]: 7.275
- ABCC1 Expression Difference [1]: 6.415
- ABCC2 Expression Difference [1]: 2.907
- ABCC5 Expression Difference [1]: 2.301
- ABCC10 Expression Difference [1]: 1.562
- ABCD1 Expression Difference [1]: 0.665
- ABCD1 Treated vs. Untr. [1]: DOWN
- ABCD2 Expression Difference [1]: 1.845
- ABCD3 Expression Difference [1]: 2.960
- ABCD4 Expression Difference [1]: 2.760
- ABCE1 Expression Difference [1]: 7.298
- ABCF1 Expression Difference [1]: 1.638
- ABCF2 Expression Difference [1]: 2.868
- ABCF3 Expression Difference [1]: 2.163
- ABCG1 Expression Difference [1]: 0.932
- ABCG2 Expression Difference [1]: 1.869
- ABCG4 Expression Difference [1]: 0.755
- ABCG4 Treated vs. Untr. [1]: DOWN
- MCF-7/PAX Fold change (3D) (MCF-7/PAX spheroids): (0.9 ± 0.0)×

SMILES: CC(=O)C[Se]C(=O)c1ccccc1C(F)(F)F [K4]
- ABCA1 Expression Difference [1]: 1.347
- ABCA2 Expression Difference [1]: 0.948
- ABCA3 Expression Difference [1]: 0.832
- ABCA3 Treated vs. Untr. [1]: DOWN
- ABCA5 Expression Difference [1]: 2.334
- ABCA7 Expression Difference [1]: 0.359
- ABCA7 Treated vs. Untr. [1]: DOWN
- ABCB1 Expression Difference [1]: 3.696
- ABCB2 Expression Difference [1]: 0.435
- ABCB2 Treated vs. Untr. [1]: DOWN
- ABCB3 Expression Difference [1]: 4.568
- ABCB6 Expression Difference [1]: 5.132
- ABCB7 Expression Difference [1]: 7.250
- ABCB8 Expression Difference [1]: 3.526
- ABCB9 Expression Difference [1]: 4.981
- ABCB10 Expression Difference [1]: 8.165
- ABCC1 Expression Difference [1]: 8.545
- ABCC2 Expression Difference [1]: 3.272
- ABCC5 Expression Difference [1]: 2.336
- ABCC10 Expression Difference [1]: 1.545
- ABCD1 Expression Difference [1]: 0.796
- ABCD1 Treated vs. Untr. [1]: DOWN
- ABCD2 Expression Difference [1]: 4.885
- ABCD3 Expression Difference [1]: 3.302
- ABCD4 Expression Difference [1]: 2.681
- ABCE1 Expression Difference [1]: 6.945
- ABCF1 Expression Difference [1]: 1.998
- ABCF2 Expression Difference [1]: 3.096
- ABCF3 Expression Difference [1]: 2.262
- ABCG1 Expression Difference [1]: 1.213
- ABCG2 Expression Difference [1]: 1.302
- ABCG4 Expression Difference [1]: 0.776
- ABCG4 Treated vs. Untr. [1]: DOWN
- MCF-7/PAX Fold change (3D) (MCF-7/PAX spheroids): (1.0 ± 0.1)×

SMILES: CC(=O)C[Se]C(=O)c1ccc(C(C)(C)C)cc1 [K7]
- ABCA1 Expression Difference [1]: 1.104
- ABCA2 Expression Difference [1]: 1.775
- ABCA3 Expression Difference [1]: 1.018
- ABCA5 Expression Difference [1]: 1.970
- ABCA7 Expression Difference [1]: 0.341
- ABCA7 Treated vs. Untr. [1]: DOWN
- ABCB1 Expression Difference [1]: 5.009
- ABCB2 Expression Difference [1]: 0.591
- ABCB2 Treated vs. Untr. [1]: DOWN
- ABCB3 Expression Difference [1]: 3.406
- ABCB6 Expression Difference [1]: 4.646
- ABCB7 Expression Difference [1]: 7.145
- ABCB8 Expression Difference [1]: 3.581
- ABCB9 Expression Difference [1]: 4.530
- ABCB10 Expression Difference [1]: 7.288
- ABCC1 Expression Difference [1]: 7.835
- ABCC2 Expression Difference [1]: 3.865
- ABCC5 Expression Difference [1]: 3.327
- ABCC10 Expression Difference [1]: 1.899
- ABCD1 Expression Difference [1]: 0.898
- ABCD1 Treated vs. Untr. [1]: DOWN
- ABCD2 Expression Difference [1]: 0.638
- ABCD2 Treated vs. Untr. [1]: DOWN
- ABCD3 Expression Difference [1]: 4.007
- ABCD4 Expression Difference [1]: 3.541
- ABCE1 Expression Difference [1]: 10.154
- ABCF1 Expression Difference [1]: 2.212
- ABCF2 Expression Difference [1]: 4.029
- ABCF3 Expression Difference [1]: 3.001
- ABCG1 Expression Difference [1]: 1.059
- ABCG2 Expression Difference [1]: 1.468
- ABCG4 Expression Difference [1]: 1.431
- MCF-7/PAX Fold change (3D) (MCF-7/PAX spheroids): (1.1 ± 0.1)×
